Data published in patent publication US5446157A, “Boron difluoride compounds useful in photodynamic therapy and production of laser light” (priority 1993, dated 1995).
Where “and” joins values, the source holds several entries; their conditions need not be identical. Identical values can stand only once. Entries after “also recorded” stand apart in the source; their conditions may differ. Counter-ions that a name gives are not always drawn.

Key:
[1] = UV light absorption (λmax, log ε); assay type: physicochemical; conditions: for log ε: solvent as for λmax (ethanol except where noted); for absorption shift: in comparison with 8-substituted peralkylated structures (7b, g, k)
Experimental: Each recorded UV absorption was restricted to the highest wave length. Fluorescence quantum yields of the dyes were determined for ethanol solutions with excitation at 450 and 460 nm by reference to acridine orange, .PHI.0.46, in ethanol; for the dye 7p the reference was R-6G, <P 0.90. […] Melting points were obtained from a Mel-Temp II device and were uncorrected. The solvent for ^1 H NMR spectra was chloroform-d with tetramethylsilane as an internal standard. Elemental analyses were obtained from Midwest Micro Lab, Indianapolis, Ind. and Galbraith Laboratories, Inc., Knoxville, Tenn. Solvents were removed by rotary evaporation under reduced pressure unless indicated otherwise. Column chromatography was performed on silica gel.
5 × 10^-6 M in ethanol except where noted otherwise.

[2] = Fluorescence (λf, quantum yield); assay type: physicochemical; conditions: for .PHI.f (fluorescence quantum yield): ethanol, excitation 450 and 460 nm, reference acridine orange
Experimental: Instruments for spectroscopic measurements included: Perkin-Elmer 1600 FTIR, Varian Gernini 300 NMR, Hewlett-Packard 5985 (70 eV) GC-MS, Cary 17 (UV), and Perkin-Elmer LS-5B Luminescence spectrometer. A dye laser was constructed and operated in the non-flowing (static) mode and had no tuning capability. […] Laser energy outputs were measured with an accuracy of ±5% by a Scientech 365 power and energy meter.
Light absorption, luminescence, and laser activity properties for the dyes 7 are described in Table VI. Each recorded UV absorption was restricted to the highest wave length. Fluorescence quantum yields of the dyes were determined for ethanol solutions with excitation at 450 and 460 nm by reference to acridine orange, .PHI.0.46, in ethanol; for the dye 7p the reference was R-6G, <P 0.90. Melting points were obtained from a Mel-Temp II device and were uncorrected. The solvent for ^1 H NMR spectra was chloroform-d with tetramethylsilane as an internal standard. Elemental analyses were obtained from Midwest Micro Lab, Indianapolis, Ind. and Galbraith Laboratories, Inc., Knoxville, Tenn. Solvents were removed by rotary evaporation under reduced pressure unless indicated otherwise. Column chromatography was performed on silica gel. Molecular weights were confirmed by EI-MS for the pyrrole 4j 193 and for laser dyes 7d 346, 7e 374, 7g 374, 7i 342, 7j 314 and 7x 360. IR absorption data satisfactorily supported structure assignments for the laser dyes 7.
^[b] 2 × 10^-4 M in ethanol except where noted otherwise.

Row | Structure (SMILES) | λmax ([1]; 5 × 10^-6 M in ethanol) [nm] | log ε [1] | λf ([2]; 2 × 10^-4 M in ethanol) [nm] | .PHI.f (fluorescence quantum yield) [2] | also measured
1 | Cc1nc2n(c1C)[B-](F)(F)[n+]1c-2[nH]c(C)c1C [Compound 21-BF3] |  |  |  |  | .THETA.f ([2]; Lewis acid salt 21-BF3): 0.93; λf ([2]; Lewis acid salt 21-BF3): 377 nm
2 | CCC1=C(C)C2=Cc3c(C)c(CC)c(C)n3[B-](CC)(CC)[N+]2=C1C [Compound 10, 1,3,5,7-tetramethyl-2,6-diethylpyrromethene-B(CH2 CH3)2 complex, reference compound] |  |  |  |  | .PHI.f ([2]; solvent not stated): 0.31
3 | CCC1=C(C)C2=C(c3ccc(N(C)C)cc3)c3c(C)c(CC)c(C)n3[B-](F)(F)[N+]2=C1C [Compound 7s] | 519 | 4.95 | 575 | 0.04 | 
4 | COc1ccc(C2=C3C(C)=CC(C)=[N+]3[B-](F)(F)n3c(C)cc(C)c32)cc1 [Compound 7t, 1,3,5,7-tetramethyl-8-p-methoxyphenylpyrromethene-BF2 complex] | 497 | 4.86 | 521 | 0.63 | 
5 | CCC1=C(C)C2=C(C3CCCCC3)c3c(C)c(CC)c(C)n3[B-](F)(F)[N+]2=C1C [Compound 7q, 1,3,5,7-tetramethyl-2,6-diethyl-8-cyclohexylpyrromethene-BF2 complex] | 516 | 4.81 | 526 | 0.23 | 
6 | CC1=C(C(C)(C)C)C(C)=[N+]2C1=Cc1c(C)c(C(C)(C)C)c(C)n1[B-]2(F)F [Compound 7x, 1,3,5,7-tetramethyl-2,6-di-tert-butylpyrromethene-BF2 complex] | 527 | 4.93 | 554 | 0.84 | absorption shift [1]: slight bathochromic shift in absorption; fluorescence [2]: erratic effect on fluorescence
7 | CCC1=C(C)C2=Cc3c(C)c(CC)c(C)n3[B-](F)(F)[N+]2=C1C [Compound 11] |  |  |  |  | .PHI.f ([2]; solvent not stated): 0.81
8 | CC1=[N+]2C(=Cc3c(-c4ccccc4)c(-c4ccccc4)c(C)n3[B-]2(F)F)C(c2ccccc2)=C1c1ccccc1 [Compound 7v, 1,2,6,7-tetraphenyl-3,5-dimethylpyrromethene-BF2 complex] | 552 | 4.91 | 590 | 0.69 | 
9 | CCC1=C(C)C(=Cc2[nH]c(C)c(CC)c2C)N=C1C [Compound 9, 3,5,3',5'-tetramethyl-4,4'-diethylpyrromethene hydrobromide, reference compound] |  |  |  |  | .PHI.f ([2]; solvent not stated): 4.3×10^-4
10 | CCC1=C(C)C2=C(C(C)C)c3c(C)c(CC)c(C)n3[B-](F)(F)[N+]2=C1C [Compound 7p, 1,3,5,7-tetramethyl-2,6-diethyl-8-isopropylpyrromethene-BF2 complex] | 527 | 4.84 | 562 |  | fluorescence [2]: large reduction in fluorescence; also recorded: absence of fluorescence; .PHI.f ([2]; with reference to R-6G .PHI. 0.90): 0.07
11 | CCC1=C(CC)C(C)=[N+]2C1=Cc1c(CC)c(CC)c(C)n1[B-]2(F)F [Compound 7y, 1,2,6,7-tetraethyl-3,5-dimethylpyrromethene-BF2 complex] | 529 | 4.89 | 554 | 0.70 | absorption shift [1]: slight bathochromic shift in absorption; fluorescence [2]: erratic effect on fluorescence
12 | CCC1=C(c2ccccc2)C2=Cc3c(-c4ccccc4)c(CC)c(C)n3[B-](F)(F)[N+]2=C1C [Compound 7u] | 540 | 5.00 | 564 | 0.60 | 

Second part, led by results:

Row | λmax ([1]; 5 × 10^-6 M in ethanol) [nm] | log ε [1] | λf ([2]; 2 × 10^-4 M in ethanol) [nm] | .PHI.f (fluorescence quantum yield) [2] | Structure (SMILES) | also measured
13 | 517 | 4.89 | 549 | 0.99 | CCCC1=C(C)C2=C(C)c3c(C)c(CCC)c(C)n3[B-](F)(F)[N+]2=C1C [Compound 7d, 2,6-Di-n-propyl-1,3,5,7,8-pentamethylpyrromethene-BF2 complex] | 
14 | 543 | 4.89 | 575 | 0.74 | CCC1=C(C)C2=C(COC(C)=O)c3c(C)c(CC)c(C)n3[B-](F)(F)[N+]2=C1C [Compound 7r] | 
15 |  | 4.63 |  | 0.17 | CC(=O)NC1=C(C)C2=C(C)c3c(C)c(NC(C)=O)c(C)n3[B-](F)(F)[N+]2=C1C [Compound 7m] | λmax ([1]; 5 × 10^-6 M in trifluoroethanol): 498 nm; λf ([2]; 2 × 10^-4 M in trifluoroethanol): 542 nm
16 |  | 4.72 |  | 0.55 | CCC1=C(C)C2=C(C#N)c3c(C)c(CC)c(C)n3[B-](F)(F)[N+]2=C1C [Compound 7bb, 1,3,5,7-Tetramethyl-2,6-diethyl-8-cyanopyrromethene-BF2 complex] | λmax ([1]; 2 × 10^-4 M in p-dioxan): 580 nm; λf ([2]; 2 × 10^-4 M in p-dioxan): 620 nm
17 | 521 | 4.89 | 554 | 0.75 | CCC1=C(CC)C(C)=[N+]2C1=C(C)c1c(CC)c(CC)c(C)n1[B-]2(F)F [Compound 7k, 1,2,6,7-tetraethyl-3,5,8-trimethylpyrromethene BF2 complex] | 
18 | 525 | 4.83 | 567 | 0.77 | CC1=C(C(C)(C)C)C(C)=[N+]2C1=C(C)c1c(C)c(C(C)(C)C)c(C)n1[B-]2(F)F [Compound 7g] | 
19 | 520 | 4.92 | 546 | 0.84 | CCC1=C(C)C2=C(CC)c3c(C)c(CC)c(C)n3[B-](F)(F)[N+]2=C1C [Compound 7o, 1,3,5,7-tetramethyl-2,6,8-triethylpyrromethene-BF2 complex] | 
20 | 518 | 4.92 | 550 | 0.90 | CCCCC1=C(C)C2=C(C)c3c(C)c(CCCC)c(C)n3[B-](F)(F)[N+]2=C1C [Compound 7e] | 
21 | 516 | 4.85 | 548 | 0.67 | CC1=C(C(C)C)C(C)=[N+]2C1=C(C)c1c(C)c(C(C)C)c(C)n1[B-]2(F)F [Compound 7f] | 
22 | 528 | 4.84 | 552 | 0.56 | CC1=C(C)C(C)=[N+]2C1=Cc1c(C)c(C)c(C)n1[B-]2(F)F [Compound 7z, 1,2,3,5,6,7-hexamethylpyrromethene-BF2 complex] | absorption shift [1]: slight bathochromic shift in absorption; fluorescence [2]: erratic effect on fluorescence
23 | 512 | > 4.8 and 4.82 | 535 |  | CC1=C2C3=C(CCC3)C(C)=[N+]2[B-](F)(F)n2c(C)c3c(c21)CCC3 [Compound 7j, 1,2,6,7-bistrimethylene-3,5,8-trimethylpyrromethene-BF2 complex] | 
24 | 485 | 4.85 | 522 | 0.84 | COC1=C(C)C(C)=[N+]2C1=C(C)c1c(OC)c(C)c(C)n1[B-]2(F)F [Compound 7n, 1,7-dimethoxy-2,3,5,6,8-pentamethylpyrromethene-BF2 complex] | 
25 | 519 | 4.90 | 559 | 0.43 | CC1=C(c2ccccc2)C(C)=[N+]2C1=C(C)c1c(C)c(-c3ccccc3)c(C)n1[B-]2(F)F [Compound 7l] | 
